From PMC10829302 (BMC Microbiology, 2024)

Biological target: T1, tubulin (α/β heterodimer; β-tubulin) (Sus scrofa, UniProt P02554)
T1 construct: heterodimer of two closely related 55 kDa proteins (α and β tubulins), isolated from Porcine brain tissue; with α-tubulin
Experiment: tubulin polymerization assay with purified porcine brain tubulin (Cytoskeleton BK011P), positive control
Type: biochemical

T1 sequence (P02554 whole entry): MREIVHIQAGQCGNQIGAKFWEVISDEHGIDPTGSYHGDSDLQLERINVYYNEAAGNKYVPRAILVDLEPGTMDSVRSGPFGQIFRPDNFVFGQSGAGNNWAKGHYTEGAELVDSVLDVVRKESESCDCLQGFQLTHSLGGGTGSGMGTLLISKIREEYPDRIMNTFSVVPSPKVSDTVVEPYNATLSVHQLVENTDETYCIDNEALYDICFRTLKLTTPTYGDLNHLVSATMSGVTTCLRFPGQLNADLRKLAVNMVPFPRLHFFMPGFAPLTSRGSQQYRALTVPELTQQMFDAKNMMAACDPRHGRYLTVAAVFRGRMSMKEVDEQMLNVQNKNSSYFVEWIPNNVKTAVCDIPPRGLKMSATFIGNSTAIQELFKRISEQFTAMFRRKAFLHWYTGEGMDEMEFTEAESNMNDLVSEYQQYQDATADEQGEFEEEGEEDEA
T1 sequence (P02550 whole entry partner): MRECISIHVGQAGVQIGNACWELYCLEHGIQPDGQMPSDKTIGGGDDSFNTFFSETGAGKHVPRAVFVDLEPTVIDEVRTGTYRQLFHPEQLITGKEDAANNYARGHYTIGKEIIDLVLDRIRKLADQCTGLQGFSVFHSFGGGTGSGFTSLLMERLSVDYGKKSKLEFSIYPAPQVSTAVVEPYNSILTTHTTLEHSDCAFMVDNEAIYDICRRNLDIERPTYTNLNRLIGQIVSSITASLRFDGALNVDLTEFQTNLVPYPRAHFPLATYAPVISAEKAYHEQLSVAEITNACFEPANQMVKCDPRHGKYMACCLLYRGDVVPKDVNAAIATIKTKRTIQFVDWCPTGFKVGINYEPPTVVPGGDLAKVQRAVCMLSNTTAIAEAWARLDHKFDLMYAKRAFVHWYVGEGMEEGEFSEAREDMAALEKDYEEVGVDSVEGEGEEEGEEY

CC(=O)O[C@H]1C(=O)[C@@]2(C)[C@H]([C@H](OC(=O)c3ccccc3)[C@]3(O)C[C@H](OC(=O)[C@H](O)[C@@H](NC(=O)c4ccccc4)c4ccccc4)C(C)=C1C3(C)C)[C@]1(OC(C)=O)CO[C@@H]1C[C@@H]2O [Paclitaxel]
IC50: 2340 nM
